In US20110201648A1, “POLY-HETEROARYL DERIVATIVES FOR THE TREATMENT OF CANCER” (INSTITUT CURIE, priority 2008, published 2011):

| melting point [°C] | Structure (SMILES) |
| --- | --- |
| 242 to 245 | c1ccc(-c2ncc(-c3cccc(-c4cnc(-c5ccccn5)o4)n3)o2)nc1 [compound 1, 2,6-Bis[2-(pyridin-2-yl)oxazol-5-yl]pyridine] |
| > 250 | c1cc(-c2cnc(-c3cccc(-c4cnco4)n3)o2)cc(-c2cnc(-c3cccc(-c4cnco4)n3)o2)c1 [compound 4, 1,3-Bis(2-(6-(oxazol-5-yl)pyridin-2-yl)oxazol-5-yl)benzene] |
| 254 to 256 | c1cc(-c2cnco2)cc(-c2ncc(-c3cccc(-c4cnc(-c5cccc(-c6cnco6)c5)o4)n3)o2)c1 [compound 5, 2,6-Bis(2-(3-(oxazol-5-yl)phenyl)oxazol-5-yl)pyridine] |
| > 250 | c1cc(-c2cnc(-c3ccc(-c4cnco4)o3)o2)nc(-c2cnc(-c3ccc(-c4cnco4)o3)o2)c1 [compound 6, 2,6-Bis(2-(5-(oxazol-5-yl)furan-2-yl)oxazol-5-yl)pyridine] |
